Biological target: T1, Tery_3377 (IdiA/FutA) (Trichodesmium erythraeum, UniProt Q10Z45)
T1 construct: mature protein, predicted signal peptide (residues 1-31) removed, C-terminal His6 tag, pET21a(+), E. coli BL21(DE3); two monomers per asymmetric unit
Assay: X-ray crystal structure, […] Å
Conditions: two citrates bound in the substrate-binding cleft together with one Fe3+ that they coordinate, about 7 Å from the empty iron site; protein citrate-treated before crystallisation; carboxylic acids mix

T1 sequence (Q10Z45 entry or part of it): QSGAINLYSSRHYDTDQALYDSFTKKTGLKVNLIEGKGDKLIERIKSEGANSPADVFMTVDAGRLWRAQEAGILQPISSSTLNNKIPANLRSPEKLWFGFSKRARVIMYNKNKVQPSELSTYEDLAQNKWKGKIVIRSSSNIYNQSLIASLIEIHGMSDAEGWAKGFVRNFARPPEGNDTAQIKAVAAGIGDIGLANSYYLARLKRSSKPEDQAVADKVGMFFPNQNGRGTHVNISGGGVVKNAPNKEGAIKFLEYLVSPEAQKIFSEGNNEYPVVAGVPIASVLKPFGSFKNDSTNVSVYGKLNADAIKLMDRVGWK

Q: With `O=C(O)CC(O)(CC(=O)O)C(=O)O` [citrate] as the compound, how does the “X-ray crystal structure, 1.2 Å” value read?
A: Its value is “traps the citrate molecule with bound iron in the substrate-binding cleft”.
